Test results reported in patent US10485235B2, “Aryloxypyrimidinyl ethers as herbicides” (FMC Corporation, priority 2015, dated 2019).

Columns and labels:
Type in all cases: in vivo
[1] = tested on: foxtail, giant (giant foxtail, Setaria faberii); assay: Test A preemergence, giant foxtail; conditions: Preemergence, 0 to 100 scale (0 no effect, 100 complete control)
Summary of the method: (§1)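 Pre- and postemergence greenhouse screen in loam–sand soil. Test chemicals were delivered in a non-phytotoxic solvent with surfactant, preemergence as a directed spray onto seeded soil and postemergence onto 2–10 cm seedlings. Injury was judged by eye after ~10 days on a 0–100 scale.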

[2] = tested on: ragweed (common ragweed, Ambrosia elatior); assay: Test A postemergence, ragweed
Summary of the method: as §1

[3] = tested on: foxtail, giant (giant foxtail, Setaria faberii); assay: Test A postemergence, giant foxtail
Summary of the method: as §1

kochia (Kochia scoparia) [4] = assay: Test A postemergence, kochia
Summary of the method: as §1

[5] = tested on: wheat (Triticum aestivum); assay: Test A postemergence, wheat
Summary of the method: as §1

corn (Zea mays) = assay: Test A postemergence, corn
Summary of the method: as §1

[6] = tested on: ryegrass, Italian (Italian ryegrass, Lolium multiflorum); assay: Test A preemergence, Italian ryegrass; conditions: Preemergence, 0 to 100 scale (0 no effect, 100 complete control)
Summary of the method: as §1

[7] = tested on: ragweed (common ragweed, Ambrosia elatior); assay: Test A preemergence, ragweed; conditions: Preemergence, 0 to 100 scale (0 no effect, 100 complete control)
Summary of the method: as §1

[8] = tested on: barnyardgrass (Echinochloa crus-galli); assay: Test A postemergence, barnyardgrass
Summary of the method: as §1

[9] = tested on: blackgrass (Alopecurus myosuroides); assay: Test A postemergence, blackgrass
Summary of the method: as §1

[10] = tested on: galium (catchweed bedstraw, Galium aparine); assay: Test A postemergence, galium
Summary of the method: as §1

[11] = tested on: pigweed (Amaranthus retroflexus); assay: Test A postemergence, pigweed
Summary of the method: as §1

[12] = tested on: barnyardgrass (Echinochloa crus-galli); assay: Test A preemergence, barnyardgrass; conditions: Preemergence, 0 to 100 scale (0 no effect, 100 complete control)
Summary of the method: as §1

[13] = tested on: barnyardgrass (Echinochloa crus-galli); assay: Test B flooded paddy test, barnyardgrass; conditions: 250 g ai/ha, Flood; visual rating after 13 to 15 days; scale 0 to 100, 0 is no effect, 100 is complete control
Summary of the method: (§2)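 Seedlings at the 2-leaf stage are flooded to 3 cm and treated via the paddy water. Greenhouse plants are compared with controls after 13 to 15 days and given a 0 (no effect) to 100 (complete control) rating.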

[14] = tested on: sedge, umbrella (small-flower umbrella sedge, Cyperus difformis); assay: Test B flooded paddy test, umbrella sedge; conditions: 250 g ai/ha, Flood; visual rating after 13 to 15 days; scale 0 to 100, 0 is no effect, 100 is complete control
Summary of the method: as §2

kochia (Kochia scoparia) [15] = assay: Test A preemergence, kochia; conditions: Preemergence, 0 to 100 scale (0 no effect, 100 complete control)
Summary of the method: as §1

[16] = tested on: ducksalad (Heteranthera limosa); assay: Test B flooded paddy test, ducksalad; conditions: 250 g ai/ha, Flood; visual rating after 13 to 15 days; scale 0 to 100, 0 is no effect, 100 is complete control
Summary of the method: as §2

rice (Oryza sativa) = assay: Test B flooded paddy test, rice; conditions: 250 g ai/ha, Flood; visual rating after 13 to 15 days; scale 0 to 100, 0 is no effect, 100 is complete control
Summary of the method: as §2

[17] = tested on: pigweed (Amaranthus retroflexus); assay: Test A preemergence, pigweed; conditions: Preemergence, 0 to 100 scale (0 no effect, 100 complete control)
Summary of the method: as §1

[18] = tested on: ryegrass, Italian (Italian ryegrass, Lolium multiflorum); assay: Test A postemergence, Italian ryegrass
Summary of the method: as §1

[19] = 125 g ai/ha, postemergence, 0 to 100 scale, 0 is no effect, 100 is complete control, approximately 10 days
[20] = Postemergence, 31 g ai/ha, 0 to 100 scale (0 no effect, 100 complete control)

Row | Compound | Plant response rating, Foxtail, Giant ([1]; 31 g ai/ha) | Plant response rating, Foxtail, Giant ([1]; 125 g ai/ha) | Plant response rating, Ragweed [2, 19] | Plant response rating, Ragweed [2, 20] | Plant response rating, Foxtail, Giant [3, 19] | Plant response rating, Foxtail, Giant [3, 20] | Plant response rating, Kochia (kochia (Kochia scoparia) [4]; [19]) | Plant response rating, Kochia (kochia (Kochia scoparia) [4]; [20]) | Plant response rating, Wheat [5, 19] | Plant response rating, Wheat [5, 20] | Plant response rating, Corn (corn (Zea mays); [19]) | Plant response rating, Corn (corn (Zea mays); [20]) | Plant response rating, Ryegrass, Italian ([6]; 31 g ai/ha) | Plant response rating, Ryegrass, Italian ([6]; 125 g ai/ha) | Plant response rating, Ragweed ([7]; 31 g ai/ha) | Plant response rating, Ragweed ([7]; 125 g ai/ha) | Plant response rating, Barnyardgrass [8, 19] | Plant response rating, Barnyardgrass [8, 20] | Plant response rating, Blackgrass [9, 19] | Plant response rating, Blackgrass [9, 20] | other results
1 | N#CCCCOc1c(I)cccc1Oc1ncc(Cl)cn1 [Compound 67] | 60 | 100 | 10 | 0 | 30 | 10 | 100 | 60 | 0 | 0 | 20 | 10 | 0 | 20 | 0 | 0 | 30 | 0 | 30 | 0 | Plant response rating, Galium [10, 19]: 50; Plant response rating, Galium [10, 20]: 30; Plant response rating, Pigweed [11, 19]: 100; Plant response rating, Pigweed [11, 20]: 60; Plant response rating, Barnyardgrass ([12]; 31 g ai/ha): 0; Plant response rating, Barnyardgrass ([12]; 125 g ai/ha): 30; Plant response rating, Barnyardgrass [13]: 0; Plant response rating, Sedge, Umbrella [14]: 95; Plant response rating, Kochia (kochia (Kochia scoparia) [15]; 31 g ai/ha): 20; Plant response rating, Kochia (kochia (Kochia scoparia) [15]; 125 g ai/ha): 80; Plant response rating, Ducksalad [16]: 100; Plant response rating, Rice (rice (Oryza sativa)): 10; Plant response rating, Pigweed ([17]; 31 g ai/ha): 50; Plant response rating, Pigweed ([17]; 125 g ai/ha): 100; Plant response rating, Ryegrass, Italian [18, 19]: 10; Plant response rating, Ryegrass, Italian [18, 20]: 0
2 | Cl/C=C/COc1c(I)cccc1Oc1ncc(Cl)cn1 [Compound 68] | 70 | 100 | 20 | 0 | 80 | 30 | 100 | 90 | 0 | 0 | 30 | 20 | 0 | 20 | 0 | 0 | 100 | 60 | 60 | 20 | Plant response rating, Galium [10, 19]: 60; Plant response rating, Galium [10, 20]: 50; Plant response rating, Pigweed [11, 19]: 100; Plant response rating, Pigweed [11, 20]: 80; Plant response rating, Barnyardgrass ([12]; 31 g ai/ha): 70; Plant response rating, Barnyardgrass ([12]; 125 g ai/ha): 70; Plant response rating, Barnyardgrass [13]: 40; Plant response rating, Sedge, Umbrella [14]: 100; Plant response rating, Kochia (kochia (Kochia scoparia) [15]; 31 g ai/ha): 0; Plant response rating, Kochia (kochia (Kochia scoparia) [15]; 125 g ai/ha): 30; Plant response rating, Ducksalad [16]: 100; Plant response rating, Rice (rice (Oryza sativa)): 10; Plant response rating, Pigweed ([17]; 31 g ai/ha): 0; Plant response rating, Pigweed ([17]; 125 g ai/ha): 100; Plant response rating, Ryegrass, Italian [18, 19]: 30; Plant response rating, Ryegrass, Italian [18, 20]: 0
